Here are results for 3 molecules from article PMC8406298, “Discovery of Fungus-Specific Targets and Inhibitors Using Chemical Phenotyping of Pathogenic Spore Germination” (mBio, 2021).

The subject of test [1] is Candida albicans. Also on record: method as in PMID 16876761. Conditions: cited from earlier work.
Test [2] deals with Cryptococcus spores. The experiment in a line: Quantitative germination assay (QGA), automated microscopy of spore germination. Particulars: for germination inhibition phenotype (chemical phenotype) in QGA: at phenotypic concentration. The format is cell-based, Cryptococcus neoformans serotype D (deneoformans). The method, then: In this automated microscopy-based assay, germination progression of spores is monitored as a function of changes in cell morphology over time (spores are small and oval; yeast are large and circular). Individual spores in a population (∼1 × 10^4 per sample) are measured to determine size (area) and shape (aspect ratio) from the onset of germination, and the data are collected for each cell over the time of germination (Fig. 1A).
Germination assays were modified from those described by Barkal et al. to introduce automation, increase throughput, and refine assay consistency ([12]). Briefly, 384-well plates (Thermo Scientific 142762) were loaded with 10^5 spores per well, and at 0 h, synthetic medium plus 2% dextrose (SD medium) containing the compounds of interest was added to the sample (final volume of 40 μl). All compounds were tested initially at 80 μM; however, concentrations were changed on a case-by-case basis for subsequent experiments. All assays and controls were performed with a final concentration of 0.8% DMSO (the compound solvent) unless specified otherwise. Spores were germinated at 30°C in a humidified chamber, and the same ∼5 × 10^3 cells were monitored every 2 h for 16 h. Imaging was performed on a Ti2 Nikon microscope, and each condition was visualized in a minimum of two individual wells with three fields of view acquired from each well. All images were analyzed as described previously based on cell shape and size using ImageJ. The population ratios of spores, intermediates, and yeast were determined. Error bars in plots are based on the variation among all fields of view acquired. Level of germination was determined by quantifying the decrease in the proportion of spores in a population, and rates were quantified by determining the change in this proportion over time. For all two-dimensional histograms, the x axis represents area from 0 μm^2 to 25 μm^2, and the y axis represents the aspect ratio from 0.4 to 1.
Cycloheximide (0.078 μM to 80 μM) (Dot Scientific, Inc. DSC81040-1), G418 (1.6 mM) (Fisher Scientific AAJ6267106), and puromycin (20 mM) (Dot Scientific, Inc. DSP33020-0.025) were tested with no DMSO (all were water soluble), whereas anisomycin (62.5 μM) (Sigma-Aldrich A9789-5MG) was tested in 2.5% DMSO.
Furcarbanil (80 μM) (Sigma-Aldrich T313122), rotenone (10 μM) (Fisher Scientific 501687383), and antimycin A (2.5 μM) (Santa Cruz Biotechnology, Inc. sc-202467A) were all tested in 0.8% DMSO, and TTFA (200 μM) (Sigma-Aldrich 88300-5G) was tested in 3% DMSO.

Test [3] deals with Cryptococcus spores harboring CNK01510-NL fusion. The experiment in a line: Nanoluciferase germination screen (HTS). The format is cell-based, Cryptococcus neoformans serotype D (deneoformans). An excerpt: To identify potential inhibitors of spore germination, a nanoluciferase (NL)-based high-throughput screening (HTS) assay was developed, and compounds from three libraries of structurally diverse, drug-like small molecules (LifeChem 1 to 3) were screened (see Fig. S1 in the supplemental material). For the assay, a previously identified protein (CNK01510) was fused to the nanoluciferase protein (Promega) and introduced into its endogenous locus in the Cryptococcus genome ([14]). Strains harboring the integrated NL protein fusion were crossed under sexual development conditions to produce spores. Spores from the NL strains yielded very little NL enzyme activity; however, yeast from those strains produced a robust NL signal. Most importantly, the amount of NL signal correlated with the germination state. As spores germinated into yeast, the levels of NL signal increased, resulting in a robust signal over baseline at the end of germination (∼14-fold) (Fig. S1). […] Secondary screens were performed on these hits to determine effects on yeast replication, cytotoxicity against mammalian fibroblasts, and direct inhibition of the NL enzyme (see Data Set S1).
Screening of the LifeChem libraries (Life Chemicals) was carried out with the assistance of the University of Wisconsin—Madison (UW-Madison) small-molecule screening facility. All NL screening was performed as described previously ([7]). […]

In test [4] the test system is Cryptococcus spores. Also noted: method as in PMID 31570398. Conditions: previous study; cited from earlier work.

Turning to `O=C(CC(=O)C(F)(F)F)c1cccs1` [TTFA, thenoyltrifluoroacetone, reference compound], in test [1], the “effect on hyphal formation” value is given as “prevent hyphal formation”. In test [2], the “phenotypic concentration (concentration showing the germination phenotype in QGA)” value is 200 µM and the “germination inhibition phenotype (chemical phenotype) in QGA” value was “asynchrony”.
In the case of `C[C@@H]1C[C@@H]([C@H](O)CC2CC(=O)NC(=O)C2)C(=O)[C@@H](C)C1` [cycloheximide, reference compound], the “NL signal in germination screen” value in test [3] is “low levels of NL signal”. Besides, the “inhibition of germination (changes in size or shape)” value in test [2] (10 µM) is on record as “full inhibition of germination”. In test [2] (Cryptococcus, 16 h, read-out: 50% inhibitory concentration (IC50) of spore germination), the IC50 came to 1700 nM. Further, the “germination inhibition phenotype (chemical phenotype) in QGA” value in test [2] is on record as “slow-down”.
Turning to `CCN(CC)C(=S)SSC(=S)N(CC)CC` [disulfiram], the “germination inhibition phenotype in QGA” value in test [4] is reported as “slow-end”.
